Data published in publication PMC5540273, “Progress towards a public chemogenomic set for protein kinases and a call for contributions” (PLoS ONE, 2017).

How the values were obtained:
Experiment in all cases: KINOMEscan competition binding
ACVR2B = ACVR2B (Homo sapiens, UniProt Q13705); conditions: read-out: %Inh ACVR2B
BRK = BRK (Homo sapiens, UniProt Q13882); conditions: read-out: %Inh BRK
CDC2L1 = CDC2L1 (Homo sapiens, UniProt P21127); conditions: read-out: %Inh CDC2L1
CDKL3 = CDKL3 (Homo sapiens, UniProt Q8IVW4); conditions: read-out: %Inh CDKL3
Chain of CDKL3 (Q8IVW4 whole entry): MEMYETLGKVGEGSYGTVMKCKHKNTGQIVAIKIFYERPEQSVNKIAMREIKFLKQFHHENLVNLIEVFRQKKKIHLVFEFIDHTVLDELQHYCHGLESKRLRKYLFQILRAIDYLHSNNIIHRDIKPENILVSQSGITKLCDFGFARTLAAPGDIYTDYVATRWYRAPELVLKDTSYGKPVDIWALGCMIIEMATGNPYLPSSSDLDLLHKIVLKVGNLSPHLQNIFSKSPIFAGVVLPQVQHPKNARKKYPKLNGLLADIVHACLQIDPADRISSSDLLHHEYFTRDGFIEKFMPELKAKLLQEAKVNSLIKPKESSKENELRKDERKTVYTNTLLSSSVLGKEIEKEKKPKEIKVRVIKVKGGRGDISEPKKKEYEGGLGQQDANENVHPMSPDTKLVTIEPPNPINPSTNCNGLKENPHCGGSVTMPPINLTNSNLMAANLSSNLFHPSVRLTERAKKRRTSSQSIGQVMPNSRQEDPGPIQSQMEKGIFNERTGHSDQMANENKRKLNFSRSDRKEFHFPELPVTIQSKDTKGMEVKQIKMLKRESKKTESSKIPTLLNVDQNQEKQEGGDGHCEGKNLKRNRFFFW

EPHA6 = molecular target: T1, EPHA6 (Homo sapiens, UniProt Q9UF33); conditions: read-out: %Inh EPHA6
T1 sequence (Q9UF33 23-1036): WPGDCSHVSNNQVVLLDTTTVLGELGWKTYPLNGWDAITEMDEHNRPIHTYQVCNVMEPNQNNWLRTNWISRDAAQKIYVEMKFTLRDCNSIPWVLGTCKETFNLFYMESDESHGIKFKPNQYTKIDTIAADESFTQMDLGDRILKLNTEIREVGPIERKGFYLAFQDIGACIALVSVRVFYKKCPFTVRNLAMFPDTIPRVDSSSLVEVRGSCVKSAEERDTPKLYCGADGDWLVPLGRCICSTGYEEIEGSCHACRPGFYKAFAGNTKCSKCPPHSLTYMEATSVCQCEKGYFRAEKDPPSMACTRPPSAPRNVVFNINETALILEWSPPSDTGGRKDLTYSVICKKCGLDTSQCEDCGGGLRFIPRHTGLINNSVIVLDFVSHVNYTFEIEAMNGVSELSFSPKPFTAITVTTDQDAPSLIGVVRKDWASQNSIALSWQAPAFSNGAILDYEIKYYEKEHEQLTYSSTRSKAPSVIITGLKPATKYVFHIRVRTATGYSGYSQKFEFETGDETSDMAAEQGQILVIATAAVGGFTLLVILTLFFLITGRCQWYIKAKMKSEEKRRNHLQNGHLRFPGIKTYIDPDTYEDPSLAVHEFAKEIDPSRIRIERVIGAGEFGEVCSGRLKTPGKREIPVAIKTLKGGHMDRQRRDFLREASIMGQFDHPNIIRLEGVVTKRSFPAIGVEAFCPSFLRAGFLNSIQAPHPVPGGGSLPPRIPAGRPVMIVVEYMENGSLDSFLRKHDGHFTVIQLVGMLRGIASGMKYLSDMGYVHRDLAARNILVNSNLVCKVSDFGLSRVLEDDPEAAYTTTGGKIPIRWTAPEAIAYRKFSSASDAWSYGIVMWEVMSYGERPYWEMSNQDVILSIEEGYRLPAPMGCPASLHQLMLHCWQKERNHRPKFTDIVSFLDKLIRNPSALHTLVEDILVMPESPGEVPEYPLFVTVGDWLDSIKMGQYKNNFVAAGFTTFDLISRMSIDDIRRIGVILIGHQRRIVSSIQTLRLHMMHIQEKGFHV

[1] = molecular target: JAK1(JH2domain-pseudokinase) (Homo sapiens, UniProt P23458); conditions: read-out: %Inh JAK1(JH2domain-pseudokinase)
Chain of JAK1(JH2domain-pseudokinase) (P23458 578-855 limits assumed): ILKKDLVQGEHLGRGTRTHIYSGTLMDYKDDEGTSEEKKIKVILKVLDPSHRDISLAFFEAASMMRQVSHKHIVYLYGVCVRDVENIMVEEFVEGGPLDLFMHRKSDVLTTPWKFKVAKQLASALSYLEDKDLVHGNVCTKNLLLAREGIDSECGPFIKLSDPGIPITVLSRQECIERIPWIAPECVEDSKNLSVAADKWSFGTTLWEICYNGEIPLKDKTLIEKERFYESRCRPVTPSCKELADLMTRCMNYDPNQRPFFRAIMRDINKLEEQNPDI

Chain of ACVR2B (Q13705 19-512): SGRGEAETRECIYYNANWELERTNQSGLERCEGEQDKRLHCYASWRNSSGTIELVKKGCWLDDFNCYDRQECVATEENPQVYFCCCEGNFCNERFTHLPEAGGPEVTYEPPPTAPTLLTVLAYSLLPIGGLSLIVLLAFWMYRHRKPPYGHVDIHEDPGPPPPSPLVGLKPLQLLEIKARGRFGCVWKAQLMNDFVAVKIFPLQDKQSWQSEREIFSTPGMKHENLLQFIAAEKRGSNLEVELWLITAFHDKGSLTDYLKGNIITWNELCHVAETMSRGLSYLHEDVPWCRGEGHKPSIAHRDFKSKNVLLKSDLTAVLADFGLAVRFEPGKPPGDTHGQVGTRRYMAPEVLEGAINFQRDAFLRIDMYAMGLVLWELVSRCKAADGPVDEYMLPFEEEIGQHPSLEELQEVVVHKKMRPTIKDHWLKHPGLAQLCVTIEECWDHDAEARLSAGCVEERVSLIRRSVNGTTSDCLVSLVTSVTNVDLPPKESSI
Chain of BRK (Q13882 whole entry): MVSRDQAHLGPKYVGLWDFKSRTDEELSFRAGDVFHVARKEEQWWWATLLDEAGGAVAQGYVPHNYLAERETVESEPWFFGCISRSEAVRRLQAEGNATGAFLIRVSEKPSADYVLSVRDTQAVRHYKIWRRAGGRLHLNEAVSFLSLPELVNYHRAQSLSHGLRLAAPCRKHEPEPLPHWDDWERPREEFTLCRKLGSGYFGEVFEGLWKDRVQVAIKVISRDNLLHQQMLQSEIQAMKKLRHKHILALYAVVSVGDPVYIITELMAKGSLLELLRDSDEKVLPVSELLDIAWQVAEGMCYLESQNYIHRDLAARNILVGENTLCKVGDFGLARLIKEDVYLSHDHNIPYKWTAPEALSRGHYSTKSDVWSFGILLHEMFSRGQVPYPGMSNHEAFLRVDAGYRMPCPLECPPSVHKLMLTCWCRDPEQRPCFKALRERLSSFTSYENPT
Chain of CDC2L1 (P21127 whole entry): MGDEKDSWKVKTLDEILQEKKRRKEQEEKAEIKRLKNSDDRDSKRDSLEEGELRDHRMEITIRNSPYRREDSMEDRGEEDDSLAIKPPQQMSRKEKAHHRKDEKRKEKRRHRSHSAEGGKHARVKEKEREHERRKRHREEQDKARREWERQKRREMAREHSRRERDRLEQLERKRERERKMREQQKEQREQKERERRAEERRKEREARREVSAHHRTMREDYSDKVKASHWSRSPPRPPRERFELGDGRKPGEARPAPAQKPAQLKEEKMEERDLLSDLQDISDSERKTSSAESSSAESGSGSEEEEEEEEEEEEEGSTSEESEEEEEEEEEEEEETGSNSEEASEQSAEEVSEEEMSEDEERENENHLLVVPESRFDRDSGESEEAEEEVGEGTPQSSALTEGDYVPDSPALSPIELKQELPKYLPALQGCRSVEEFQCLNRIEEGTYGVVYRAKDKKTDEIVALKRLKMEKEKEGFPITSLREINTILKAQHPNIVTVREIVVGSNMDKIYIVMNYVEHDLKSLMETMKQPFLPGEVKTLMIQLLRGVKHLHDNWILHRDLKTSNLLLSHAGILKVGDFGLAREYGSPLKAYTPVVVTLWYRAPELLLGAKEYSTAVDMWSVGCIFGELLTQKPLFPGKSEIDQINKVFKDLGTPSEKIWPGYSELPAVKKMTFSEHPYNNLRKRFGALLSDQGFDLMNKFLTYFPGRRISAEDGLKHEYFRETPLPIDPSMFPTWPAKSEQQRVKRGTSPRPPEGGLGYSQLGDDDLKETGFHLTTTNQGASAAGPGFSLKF

| Compound | inhibition at 1 µM (ACVR2B) [%] | inhibition at 1 µM (BRK) [%] | inhibition at 1 µM (CDC2L1) [%] | inhibition at 1 µM (CDKL3) [%] | inhibition at 1 µM (EPHA6) [%] | inhibition at 1 µM [1] [%] |
| --- | --- | --- | --- | --- | --- | --- |
| Cn1cc(-c2cnc(N)c3c(-c4ccc5c(c4)CCN5C(=O)Cc4ccccc4)csc23)cn1 [UNC10225012A] | 0 | 92.2 | 4 | 4 | 11 | 0 |
| CS(=O)(=O)Cc1ccc(Nc2nccc(-c3c(-c4cccc(NC(=O)C5CCCCC5)c4)nn4ncccc34)n2)cc1 [UNC10225159A] | 0 | 2 | 0 | 0 | 2 | 0 |
| Cc1ccc(NC(=O)Nc2cccc(C(F)(F)F)c2)cc1 [UNC10225187A] | 0 | 0 | 3 | 4 | 0 | 12 |
| COc1cccc(OC)c1C(=O)Nc1cccc(-c2nn3ccccc3c2-c2ccnc(Nc3cccc(F)c3)n2)c1 [UNC10225310A] | 27 | 19 | 0 | 3 | 11 | 4 |
| O=c1cc(N2CCOCC2)nc2n(Cc3cccc(Cl)c3Cl)c(C3CC3)nn12 [UNC10225469A] | 0 | 0 | 0 | 0 | 0 | 3 |
